The results in this text go back to patent US10897903B2, “Method for controlling PPO resistant weeds” (BASF SE, priority 2016, dated 2021).

Assay [1] has as its system w.2 AMATU Amaranthus tuberculatus, tall waterhemp, PPO resistant biotype 1 that does not contain the ΔG210 mutation. The format is in vivo. The settings on record: summary of Example 3 table.
The test system of assay [2] is w.3 AMATU Amaranthus tuberculatus, tall waterhemp, PPO resistant biotype 2 that does not contain the ΔG210 mutation. The format is in vivo. The note with it: summary of Example 3 table.

Consider `C#CCN1C(=O)C(F)(F)Oc2cc(F)c(-n3c(=O)n(C)c(=S)n(C)c3=O)cc21` [I.a.35], for which the “activity in words on PPO resistant weed w.2” value in assay [1] is on record as “very good activity”. Moreover, in assay [2], the “activity in words on PPO resistant weed w.3” value is on record as “very good activity”.
